Data published in patent US9598433B2, “Hepatitis C virus inhibitors” (BRISTOL-MYERS SQUIBB COMPANY, priority 2012, dated 2017).
pEC50: −log10 of the molar value. Like-named read-outs stand apart in the source and are kept apart here.

Columns and labels:
[1] = test system: HCV genotype 1b (Con1) replicon in HUH-7 cells; assay: HCV replicon luciferase reporter assay, genotype 1b; type: cell-based; conditions: Hepatitis C virus, 72 h, genotype 1b replicon, 3 days incubation
Source text: (§1) An HCV replicon whole cell system was established as described by Lohmann V, Korner F, Koch J, Herian U, Theilmann L, Bartenschlager R., Science 285(5424):110-3 (1999) and modified to introduce a luciferase reporter, as first described by Krieger et al (Krieger N, Lohmann V, and Bartenschlager R, J. Virol. 75(10):4614-4624 (2001)). CDNA encoding a humanized form of the Renilla luciferase gene and a linker sequence fused directly to the 3′-end of the luciferase gene were introduced into the replicon construct using an Ascl restriction site located in core, directly upstream of the neomycin marker gene. The adaptive mutation at position 1179 (serine to isoleucine) was also introduced (Blight K J, Kolykhalov, A A, Rice, C M, Science 290(5498):1972-1974). A stable cell line constitutively expressing this HCV replicon construct was generated by first linearizing plasmid DNAs with ScaI. RNA transcripts were synthesized in vitro using the T7 MegaScript transcription kit (Ambion, Austin, Tex.) according to manufacturer's directions. In vitro transcripts of the cDNA were transfected into the human hepatoma cell line, HUH-7. […] Resulting cell lines were characterized for positive and negative strand RNA production and protein production over time.
(§2) HCV replicon luciferase assays were developed to monitor the inhibitory effects of compounds described in the disclosure on HCV genotypes 1a and 1b viral replication. HUH-7 cells, constitutively expressing the HCV replicon, were grown in Dulbecco's Modified Eagle Media (DMEM) (Gibco-BRL) containing 10% Fetal calf serum (FCS) (Sigma) and 1 mg/mL G418 (Gibco-BRL). Compounds were serially diluted 3 folds in DMSO for a twenty-point titration and subsequently transferred to sterile 384-well tissue-culture treated plates (Corning cat #3571). The plates were then seeded with 50 μL of cells at a density of 3.0×10^3 cells/well in DMEM containing 4% FCS (final DMSO concentration at 0.5%). After 3 days incubation at 37° C., cells were analyzed for Renilla Luciferase activity using the EnduRen as substrate (Promega cat #E6485). The EnduRen substrate was diluted in DMEM and then added to the plates to a final concentration of 7.5 μM. The plates were incubated for 2 hrs at 37° C. and then read immediately for 30 seconds with Viewlux Imager (PerkinElmer) using a luminescence program. To assess cytotoxicity of compounds, CC50 values were generated by multiplexing the EnduRen-containing plates with Cell Titer-Blue (Promega, cat # G8082). Cell-Titer Blue (3 μL) was added to each well and incubated for 8 hrs at 37° C. The fluorescence signal from each well was read, with an excitation wavelength at 525/10 nm and an emission wavelength of 598/10 nm, using the Viewlux Imager.
(§3) The EC50 values for compounds were calculated by using a four-parameter logistic equation: y=A+((B−A)/(1+((C/x)^D))), where A and B denotes minimal and maximal % inhibition, respectively, C is the EC50, D is the hill slope and x represents compound concentration.

[2] = test system: HCV genotype 1a (H77 strain) replicon in HUH-7 cells; assay: HCV replicon luciferase reporter assay, genotype 1a; type: cell-based; conditions: Hepatitis C virus, 72 h, genotype 1a replicon, 3 days incubation
Source text: as §1
A stable HCV replicon luciferase reporter cell line representing the genotype 1a H77 strain (Yanagi M, Purcell R H, Emerson S U, et al. Transcripts from a single full-length cDNA clone of hepatitis C virus are infectious when directly transfected into the liver of a chimpanzee. Proc Natl Acad Sci USA 1997; 94(16):8738-8743) was generated as described previously for the genotype 1b(Con1) replicon luciferase cell line. The replicon construct was modified by introducing mutations were introduced into the genes encoding the NS3 helicase domain (proline replaced by leucine at position 1496) and NS5A (serine to isoleucine at position 2204) to improve replication in cell culture.
as §2, §3

SMILES	pEC50 ([1]; read-out: LE_1b (EC50, range))	pEC50 ([2]; read-out: LE_1a (EC50, range))	pEC50 ([1]; read-out: LE_1b (EC50))	pEC50 ([2]; read-out: LE_1a (EC50))
COc1ccc2c(O[C@@H]3C[C@H]4C(=O)N[C@]5(C(=O)NS(=O)(=O)C6(C)CC6)C[C@H]5/C=C\CC[C@@H](C)O[C@@H](C)[C@H](NC(=O)OC(C)(C)C(C)(F)F)C(=O)N4C3)nc(-c3ccc(OC(C)C)cn3)cc2c1 [Compound 2012, 3,3-difluoro-2-methylbutan-2-yl ((2R,6S,7S,9R,13a5,14aR,16aS,Z)-2-((3-(5-isopropoxypyridin-2-yl)-6-methoxyisoquinolin-1-yl)oxy)-7,9-dimethyl-14a-(((1-methylcyclopropyl)sulfonyl)carbamoyl)-5,16-dioxo-2,3,5,6,7,9,10,11,13a,14,14a,15,16,16a-tetradecahydro-1H-cyclopropa[i]pyrrolo[1,2-e][1,5,8]oxadiazacyclopentadecin-6-yl)carbamate]	9.30 to 10.00	9.30 to 10.00	–	–
COc1cnc(O[C@@H]2C[C@H]3C(=O)N[C@]4(C(=O)NS(=O)(=O)C5(C)CC5)C[C@H]4/C=C\CC[C@@H](C)O[C@@H](C)[C@H](NC(=O)OC(C)(C)C(F)(F)F)C(=O)N3C2)c2ccccc12 [Compound 2003, 1,1,1-trifluoro-2-methylpropan-2-yl ((2R,6S,7S,9R,13aS,14aR,16aS,Z)-2-((4-methoxyisoquinolin-1-yl)oxy)-7,9-dimethyl-14a-(((1-methylcyclopropyl)sulfonyl)carbamoyl)-5,16-dioxo-2,3,5,6,7,9,10,11,13a,14,14a,15,16,16a-tetradecahydro-1H-cyclopropa[i]pyrrolo[1,2-e][1,5,8]oxadiazacyclopentadecin-6-yl)carbamate]	9.30 to 10.00	9.00 to 9.29	–	–
CC[C@@H]1O[C@H](C)CC/C=C\[C@@H]2C[C@@]2(C(=O)NS(=O)(=O)C2(C)CC2)NC(=O)[C@@H]2C[C@@H](Oc3ncc(OC)c4ccccc34)CN2C(=O)[C@H]1NC(=O)OC(C)(C)C(F)(F)F [Compound 1003]	9.30 to 10.00	9.00 to 9.29	–	–
COc1cc(F)cc2c(O[C@@H]3C[C@H]4C(=O)N[C@]5(C(=O)NS(=O)(=O)C6(C)CC6)C[C@H]5/C=C\CC[C@@H](C)O[C@@H](C)[C@H](NC(=O)OC(C)(C)C(F)F)C(=O)N4C3)nccc12 [Compound 2019, 1,1-difluoro-2-methylpropan-2-yl ((2R,6S,7S,9R,13aS,14aR,16aS,Z)-2-((7-fluoro-5-methoxyisoquinolin-1-yl)oxy)-7,9-dimethyl-14a-(((1-methylcyclopropyl)sulfonyl)carbamoyl)-5,16-dioxo-2,3,5,6,7,9,10,11,13a,14,14a,15,16,16a-tetradecahydro-1H-cyclopropa[i]pyrrolo[1,2-e][1,5,8]oxadiazacyclopentadecin-6-yl)carbamate]	9.00 to 9.29	8.30 to 9.00	–	–
CC[C@@H]1O[C@H](C)CC/C=C\[C@@H]2C[C@@]2(C(=O)NS(=O)(=O)C2CC2)NC(=O)[C@@H]2C[C@@H](Oc3ncc(OC)c4ccccc34)CN2C(=O)[C@H]1NC(=O)OC(C)(C)C(F)(F)F [Compound 1004, 1,1,1-trifluoro-2-methylpropan-2-yl ((2R,6S,7S,9R,13aS,14aR,16aS,Z)-14a-((cyclopropylsulfonyl)carbamoyl)-7-ethyl-2-((4-methoxyisoquinolin-1-yl)oxy)-9-methyl-5,16-dioxo-2,3,5,6,7,9,10,11,13a,14,14a,15,16,16a-tetradecahydro-1H-cyclopropa[i]pyrrolo[1,2-e][1,5,8]oxadiazacyclopentadecin-6-yl)carbamate]	9.30 to 10.00	9.00 to 9.29	–	–
CC[C@@H]1O[C@H](C)CC/C=C\[C@@H]2C[C@@]2(C(=O)NS(=O)(=O)C2(C)CC2)NC(=O)[C@@H]2C[C@@H](Oc3cc(OC)nc4cc(OC)c(F)cc34)CN2C(=O)[C@H]1NC(=O)OC(C)(C)C(F)(F)F [Compound 1018, 1,1,1-trifluoro-2-methylpropan-2-yl ((2R,6S,7S,9R,13aS,14aR,16aS,Z)-7-ethyl-2-((6-fluoro-2,7-dimethoxyquinolin-4-yl)oxy)-9-methyl-14a-(((1-methylcyclopropyl)sulfonyl)carbamoyl)-5,16-dioxo-2,3,5,6,7,9,10,11,13a,14,14a,15,16,16a-tetradecahydro-1H-cyclopropa[i]pyrrolo[1,2-e][1,5,8]oxadiazacyclopentadecin-6-yl)carbamate]	9.00 to 9.29	8.30 to 9.00	–	–
C[C@@H]1CC/C=C\[C@@H]2C[C@@]2(C(=O)NS(=O)(=O)C2(C)CC2)NC(=O)[C@@H]2C[C@@H](Oc3nc4c(c5ccccc35)CCCO4)CN2C(=O)[C@@H](NC(=O)OC(C)(C)C(F)F)[C@H](C)O1 [Compound 2304, 1,1-difluoro-2-methylpropan-2-yl ((2R,6S,7S,9R,13aS,14aR,16aS,Z)-2-((2,3-dihydro-1H-pyrano[2,3-c]isoquinolin-6-yl)oxy)-7,9-dimethyl-14a-(((1-methylcyclopropyl)sulfonyl)carbamoyl)-5,16-dioxo-2,3,5,6,7,9,10,11,13a,14,14a,15,16,16a-tetradecahydro-1H-cyclopropa[i]pyrrolo[1,2-e][1,5,8]oxadiazacyclopentadecin-6-yl)carbamate]	9.00 to 9.29	9.30 to 10.00	9.19	9.31
CC[C@@H]1O[C@H](C)CC/C=C\[C@@H]2C[C@@]2(C(=O)NS(=O)(=O)C2(C)CC2)NC(=O)[C@@H]2C[C@@H](Oc3nccc4cc(OC)c(F)cc34)CN2C(=O)[C@H]1NC(=O)OC(C)(C)C(F)(F)F [Compound 1001]	9.30 to 10.00	8.30 to 9.00	9.33	8.90
COc1cc2ccnc(O[C@@H]3C[C@H]4C(=O)N[C@]5(C(=O)NS(=O)(=O)C6(C)CC6)C[C@H]5/C=C\CC[C@@H](C)O[C@@H](C)[C@H](NC(=O)OC(C)(C)C(C)(F)F)C(=O)N4C3)c2cc1F [Compound 2006, 3,3-difluoro-2-methylbutan-2-yl ((2R,6S,7S,9R,13aS,14aR,16aS,Z)-2-((7-fluoro-6-methoxyisoquinolin-1-yl)oxy)-7,9-dimethyl-14a-(((1-methylcyclopropyl)sulfonyl)carbamoyl)-5,16-dioxo-2,3,5,6,7,9,10,11,13a,14,14a,15,16,16a-tetradecahydro-1H-cyclopropa[i]pyrrolo[1,2-e][1,5,8]oxadiazacyclopentadecin-6-yl)carbamate]	9.30 to 10.00	8.30 to 9.00	–	–
CC[C@@H]1O[C@H](C)CC/C=C\[C@@H]2C[C@@]2(C(=O)NS(=O)(=O)C2(C)CC2)NC(=O)[C@@H]2C[C@@H](Oc3ncc(OC)c4ccc(F)cc34)CN2C(=O)[C@H]1NC(=O)OC(C)(C)C(F)F [Compound 2617, 1,1-difluoro-2-methylpropan-2-yl ((2R,6S,7S,9R,13aS,14aR,16aS,Z)-7-ethyl-2-((7-fluoro-4-methoxyisoquinolin-1-yl)oxy)-9-methyl-14a-(((1-methylcyclopropyl)sulfonyl)carbamoyl)-5,16-dioxo-2,3,5,6,7,9,10,11,13a,14,14a,15,16,16a-tetradecahydro-1H-cyclopropa[i]pyrrolo[1,2-e][1,5,8]oxadiazacyclopentadecin-6-yl)carbamate]	9.00 to 9.29	9.30 to 10.00	–	–
